Laboratory results: US11696893B2, “Preparation comprising vonoprazan” (Takeda Pharmaceutical Company Limited, priority 2017, dated 2023)

Key:
Type in all cases: physicochemical
[1] = Dissolution profile of compound A, fumaric acid, succinic acid (Rotating Basket 100 rpm); details: water-insoluble polymer coated particle of Example 1 or coagulation inhibiting substance coated particle of Reference Example 3, 60 mg compound A; FIG. 12-13
Protocol: The water-insoluble polymer coated particle of Example 1 or the coagulation inhibiting substance coated particle of Reference Example 3, each of which contained 60 mg of compound A, was subjected to a dissolution test using Rotating Basket at 100 rpm and in the same manner as in Experimental Example 1. The dissolution amounts of fumaric acid or succinic acid as well as compound A were also measured. As for fumaric acid and succinic acid, the residual rate of each organic acid in the particles were inversely calculated from the dissolution rate, and the value of the maximum dissolution amount was normalized assuming 0% of the residual rate.

[2] = Dissolution amount of compound A in saturated organic acid; details: room temperature, shaken 1 hr
Protocol: Citric acid, succinic acid, fumaric acid or malic acid was dissolved and saturated in the Japanese Pharmacopoeia dissolution test 2nd fluid (JP2), and filtered. Successively, compound A (0.4 g) was added to a filtrate (10 mL) saturated with an organic acid and the mixture was shaken at room temperature for 1 hr. The solution after shaking was filtered, diluted 50-fold with the Japanese Pharmacopoeia dissolution test 2nd fluid, and the diluted solution was diluted 20-fold with the Japanese Pharmacopoeia dissolution test 2nd fluid. The solution obtained by diluting twice was subjected to HPLC measurement and the dissolution amount of compound A was measured.

[3] = Influence of concentration of fumaric acid or monosodium fumarate on dissolution amount of compound A (common ion effect); details: JP2 with various concentrations of fumaric acid or monosodium fumarate, room temperature, 1 hr; FIG. 11
Protocol: Solutions containing various concentrations of fumaric acid or monosodium fumarate dissolved in the Japanese Pharmacopoeia dissolution test 2nd fluid were prepared. Then, 50 mg of compound A was measured and charged in a 10 mL plastic tube and each of the above-mentioned solution (5 mL) was added and the mixture was vigorously shaken at room temperature for 1 hr. The suspension after shaking was filtered, diluted 100-fold and subjected to HPLC measurement. The dissolution amount of compound A was measured.

[4] = Confirmation of dissolution control mechanism-1 (dissolution test, paddle 100 rpm); details: water-soluble polymer coated particle 3 of Reference Example 2, FIG. 14
Protocol: The water-soluble polymer coated particle 3 obtained in Reference Example 2 and containing 60 mg of compound A was subjected to a dissolution test using paddle at 100 rpm and in the same manner as in Experimental Example 1. The dissolution media was the Japanese Pharmacopoeia dissolution test 2nd fluid, the Japanese Pharmacopoeia dissolution test 2nd fluid added with 10% (W/W) sodium carbonate, the Japanese Pharmacopoeia dissolution test 2nd fluid added with 13% (W/W) succinic acid, or the Japanese Pharmacopoeia dissolution test 2nd fluid added with 0.6% (W/W) fumaric acid.

concentration (dissolution amount of compound A) ([2]; JP2, saturated organic acid: none): 5.22 µg·mL
concentration (dissolution amount of compound A) ([2]; JP2 saturated with citric acid): 26.30 µg·mL
concentration (dissolution amount of compound A) ([2]; JP2 saturated with fumaric acid, listed as Compound A, monofumarate): low concentration
concentration (dissolution amount of compound A) ([2]; JP2 saturated with fumaric acid, monofumarate): 0.67 µg·mL
concentration (dissolution amount of compound A) ([2]; JP2 saturated with malic acid): 26.64 µg·mL
dissolution of compound A ([4]; JP2 added with 10% (W/W) sodium carbonate): suppressed dissolution
SMILES: CNCc1cc(-c2ccccc2F)n(S(=O)(=O)c2cccnc2)c1.O=C(O)/C=C/C(=O)O [compound A, 1-[5-(2-Fluorophenyl)-1-(pyridin-3-ylsulfonyl)-1H-pyrrol-3-yl]-N-methylmethanamine monofumarate]
start of dissolution of compound A relative to organic acid [1]: started after dissolution of fumaric acid or succinic acid
dissolution amount of compound A [3]: influenced by the concentration of fumaric acid or monosodium fumarate
dissolution of compound A ([4]; JP2 added with 13% (W/W) succinic acid or 0.6% (W/W) fumaric acid): did not show a dissolution suppressive action
